Assay: xn = mol fraction of the nth substance listed
Settings: for viscosity / mass density / speed of sound: 102 kPa, Liquid; for viscosity: Concentric cylinders viscometry; for mass density: Vibrating tube method; for speed of sound: Frequency=3 MHz, Single path-length method; for surface tension liquid-gas: 295 K, Pendant drop shape

CC(CC(C)(C)C)CC(C)(C)C [2,2,4,6,6-pentamethylheptane] + CCCCc1ccccc1
Settings | mass density [kg/m3] | speed of sound [m/s] | viscosity [mPa·s]
253.15 K, x2 = 0.1001 | 782.1 | – | –
253.15 K, x2 = 0.1015 | – | – | 2.82
253.15 K, x2 = 0.2 | 791.5 | – | –
253.15 K, x2 = 0.2005 | – | – | 2.63
253.15 K, x2 = 0.2999 | – | – | 2.49
253.15 K, x2 = 0.3001 | 801 | – | –
253.15 K, x2 = 0.4001 | – | – | 2.37
253.15 K, x2 = 0.4006 | 811.2 | – | –
253.15 K, x2 = 0.4996 | – | – | 2.28
253.15 K, x2 = 0.5 | 822.2 | – | –
253.15 K, x2 = 0.6 | – | – | 2.24
253.15 K, x2 = 0.6002 | 834.1 | – | –
253.15 K, x2 = 0.6999 | 846.8 | – | 2.2
253.15 K, x2 = 0.8 | – | – | 2.19
253.15 K, x2 = 0.8009 | 860 | – | –
253.15 K, x2 = 0.9 | 876.1 | – | 2.21
288.15 K, x2 = 0.1001 | 756.92 | 1234.1 | –
288.15 K, x2 = 0.2 | 765.57 | 1245.3 | –
288.15 K, x2 = 0.3001 | 774.88 | 1257.1 | –
288.15 K, x2 = 0.4006 | 784.92 | 1270 | –
288.15 K, x2 = 0.5 | 795.63 | 1283.8 | –
288.15 K, x2 = 0.6002 | 807.34 | 1298.7 | –
288.15 K, x2 = 0.6999 | 819.87 | 1315 | –
288.15 K, x2 = 0.8009 | 833.77 | 1332.9 | –
288.15 K, x2 = 0.9 | 848.29 | 1352.1 | –
293.15 K, x2 = 0.1001 | 753.25 | 1214.1 | –
293.15 K, x2 = 0.1015 | – | – | 1.24
293.15 K, x2 = 0.2 | 761.88 | 1225.4 | –
293.15 K, x2 = 0.2005 | – | – | 1.18
293.15 K, x2 = 0.2999 | – | – | 1.13
293.15 K, x2 = 0.3001 | 771.17 | 1237.2 | –
293.15 K, x2 = 0.4001 | – | – | 1.08
293.15 K, x2 = 0.4006 | 781.17 | 1250 | –
293.15 K, x2 = 0.4996 | – | – | 1.05
293.15 K, x2 = 0.5 | 791.85 | 1263.8 | –
293.15 K, x2 = 0.6 | – | – | 1.02
293.15 K, x2 = 0.6002 | 803.52 | 1278.9 | –
293.15 K, x2 = 0.6999 | 816.01 | 1295 | 1.01
293.15 K, x2 = 0.8 | – | – | 0.995
293.15 K, x2 = 0.8009 | 829.8 | 1312.9 | –
293.15 K, x2 = 0.9 | 844.33 | 1332.1 | 0.997
303.15 K, x2 = 0.1001 | 745.91 | 1175 | –
303.15 K, x2 = 0.1015 | – | – | 1.07
303.15 K, x2 = 0.2 | 754.49 | 1186.5 | –
303.15 K, x2 = 0.2005 | – | – | 1.03
303.15 K, x2 = 0.2999 | – | – | 0.989
303.15 K, x2 = 0.3001 | 763.72 | 1198 | –
303.15 K, x2 = 0.4001 | – | – | 0.951
303.15 K, x2 = 0.4006 | 773.66 | 1210.8 | –
303.15 K, x2 = 0.4996 | – | – | 0.924
303.15 K, x2 = 0.5 | 784.27 | 1224.6 | –
303.15 K, x2 = 0.6 | – | – | 0.904
303.15 K, x2 = 0.6002 | 795.86 | 1240.1 | –
303.15 K, x2 = 0.6999 | 808.28 | 1255.8 | 0.887
303.15 K, x2 = 0.8 | – | – | 0.874
303.15 K, x2 = 0.8009 | 821.96 | 1274.1 | –
303.15 K, x2 = 0.9 | 836.41 | 1292.8 | 0.874
313.15 K, x2 = 0.1001 | 738.55 | 1136.7 | –
313.15 K, x2 = 0.1015 | – | – | 0.92
313.15 K, x2 = 0.2 | 747.07 | 1148.4 | –
313.15 K, x2 = 0.2005 | – | – | 0.89
313.15 K, x2 = 0.2999 | – | – | 0.862
313.15 K, x2 = 0.3001 | 756.25 | 1159.8 | –
313.15 K, x2 = 0.4001 | – | – | 0.837
313.15 K, x2 = 0.4006 | 766.12 | 1172.6 | –
313.15 K, x2 = 0.4996 | – | – | 0.814
313.15 K, x2 = 0.5 | 776.66 | 1186.3 | –
313.15 K, x2 = 0.6 | – | – | 0.798
313.15 K, x2 = 0.6002 | 788.17 | 1201.9 | –
313.15 K, x2 = 0.6999 | 800.51 | 1217.5 | 0.781
313.15 K, x2 = 0.8 | – | – | 0.77
313.15 K, x2 = 0.8009 | 814.1 | 1235.9 | –
313.15 K, x2 = 0.9 | 828.46 | 1254.4 | 0.77
323.15 K, x2 = 0.1001 | 731.16 | 1099.4 | –
323.15 K, x2 = 0.1015 | – | – | 0.813
323.15 K, x2 = 0.2 | 739.61 | 1111 | –
323.15 K, x2 = 0.2005 | – | – | 0.784
323.15 K, x2 = 0.2999 | – | – | 0.762
323.15 K, x2 = 0.3001 | 748.74 | 1122.4 | –
323.15 K, x2 = 0.4001 | – | – | 0.735
323.15 K, x2 = 0.4006 | 758.55 | 1135.1 | –
323.15 K, x2 = 0.4996 | – | – | 0.718
323.15 K, x2 = 0.5 | 769.02 | 1148.8 | –
323.15 K, x2 = 0.6 | – | – | 0.703
323.15 K, x2 = 0.6002 | 780.45 | 1164.4 | –
323.15 K, x2 = 0.6999 | 792.72 | 1179.9 | 0.692
323.15 K, x2 = 0.8 | – | – | 0.682
323.15 K, x2 = 0.8009 | 806.2 | 1198.3 | –
323.15 K, x2 = 0.9 | 820.47 | 1216.8 | 0.683
333.15 K, x2 = 0.1001 | 723.71 | 1063 | –
333.15 K, x2 = 0.1015 | – | – | 0.715
333.15 K, x2 = 0.2 | 732.11 | 1074.5 | –
333.15 K, x2 = 0.2005 | – | – | 0.692
333.15 K, x2 = 0.2999 | – | – | 0.675
333.15 K, x2 = 0.3001 | 741.19 | 1086.1 | –
333.15 K, x2 = 0.4001 | – | – | 0.653
333.15 K, x2 = 0.4006 | 750.94 | 1098.7 | –
333.15 K, x2 = 0.4996 | – | – | 0.636
333.15 K, x2 = 0.5 | 761.34 | 1112.3 | –
333.15 K, x2 = 0.6 | – | – | 0.627
333.15 K, x2 = 0.6002 | 772.69 | 1127.7 | –
333.15 K, x2 = 0.6999 | 784.88 | 1143.2 | 0.617
333.15 K, x2 = 0.8 | – | – | 0.61
333.15 K, x2 = 0.8009 | 798.16 | 1161.4 | –
333.15 K, x2 = 0.9 | 812.44 | 1180 | 0.611

Settings | surface tension liquid-gas [mN/m]
x2 = 0.1001 | 22
x2 = 0.2 | 22.2
x2 = 0.3001 | 22.7
x2 = 0.4006 | 23.1
x2 = 0.5 | 23.5
x2 = 0.6002 | 24
x2 = 0.6999 | 24.8
x2 = 0.8009 | 25.7
x2 = 0.8985 | 26.7

— the NIST ThermoML archive (doi:10.1021/acs.jced.8b00387)
